These results are taken from PubChem BioAssay AID449762 (Southern Research Specialized Biocontainment Screening …, 2010).

The structures appear in SMILES notation. Results filed as inconclusive are left out.

The term IC50 denotes the point on the concentration scale where inhibition reaches its midpoint. The IC90 is the point of the concentration-response curve where the effect stands at 90%. Read a high IC90 as weaker potency.

For the test, the system named is M. tuberculosis H37Rv growth inhibition, 7H9 media. The test is described as follows: M. tuberculosis growth inhibition, HTS (AID 449762).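 As to all read-outs here: bacterial growth assessed after seven days of incubation.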 Particulars: for IC90: measured here: IC90 growth inhibition.

On to `CC1=NN(C(=O)c2ccc(Br)cc2)C(O)(c2ccccc2)C1` (centres undefined), for which the IC50 is 48.1 µM and the IC90 came out at 65.6 µM.
As for `CCOc1cc(/C=C\[N+](=O)[O-])ccc1OCC(=O)Nc1ccccc1C`, the IC50 was 6.93 µM and the concentration for an effect of 90% (IC90) turned out to be 33.8 µM.
Take `CC(OC(=O)COc1ccc(Nc2ccccc2)cc1)C(=O)N(C)c1ccccc1` (centres undefined): the IC50 is less than 0.2 µM and the IC90 worked out at 4.17 µM.
For `O=[N+]([O-])c1cc(Cl)c(O)c(-[n+]2c(-c3ccccc3)cc(-c3ccccc3)cc2-c2ccccc2)c1`, the half-inhibitory concentration (IC50) was 2.32 µM and the IC90 stood at 5.36 µM.
The corresponding values for `Cc1ccc(NC(=O)c2ccc(CSc3nnc(C)s3)cc2)c(C)c1` are 17.4 µM and greater than 25 µM.
Turning to `Cc1ccnc(NC(=O)CCc2c[nH]c3ccccc23)c1`, the IC50 is 25.8 µM and the IC90 came to 54.4 µM.
Consider `Cc1ccc(-c2cccc(NC(=O)C3C4C=CC(C4)C3C(=O)O)c2)o1` (centres undefined), for which the IC50 is 74.2 µM and the IC90 was greater than 100 µM.
The corresponding values for `Cc1ccccc1-n1sc2cc(F)ccc2c1=O` are 18.6 µM and 22.5 µM.
As for `CCOc1ccc(-n2c(-c3ccc(Br)cc3)c[n+]3c2CCCCC3)cc1`, the IC50 is 69.7 µM and the IC90 was greater than 100 µM.
Take `COc1ccccc1C1c2ccc3ccccc3c2Oc2ncn(CCN(C)C)c(=N)c21` (centres undefined): the IC50 is 22.3 µM and the IC90 is 24.9 µM.
Taken in the same sequence, the figures for `S=C(NCCc1ccccc1)NN=C1CCCCCC1` were 23.1 µM and 26.6 µM.
Turning to `N#Cc1ccc(OCC(O)CN2CCN(c3ncc(C(F)(F)F)cc3Cl)CC2)cc1` (centres undefined), the IC50 was 15.2 µM and the IC90 came to 24 µM.
On to `CCOC(=O)C1CCCN(c2ncnc3c2cnn3-c2ccc(OC)cc2)C1` (centres undefined), for which the IC50 is 2.3 µM and the IC90 is 10.7 µM.
`COc1ccccc1N1C(=O)NC(=O)/C(=C/c2ccc([N+](=O)[O-])s2)C1=O` came in with an IC90 greater than 100 µM.
For the compound `COc1ccc(C2=Nn3c(nnc3-c3ccccc3F)SC2)cc1OC1CCCC1`, the half-inhibitory concentration (IC50) was 8.9 µM and the concentration for an effect of 90% (IC90) is 19.6 µM.
For the compound `Cc1ccc(NC(=O)Cn2ccsc2=N)c([N+](=O)[O-])c1`, the concentration for half-maximal inhibition (IC50) was 5.48 µM and the IC90 was 12.7 µM.
Regarding `CS(=O)(=O)c1nc(-c2ccccc2)cc(C(F)(F)F)n1`, the IC50 is 6.68 µM and the IC90 amounted to 18.7 µM.
As to `CCn1cnc2sc(C(=O)Oc3ccc(Br)cc3)c(C)c2c1=O`, the 50% inhibitory concentration (IC50) was 3.2 µM and the IC90 is 11.3 µM.
The corresponding values for `CCCCN(C)S(=O)(=O)c1ccc(C(=O)Nc2nnc(-c3ccco3)o2)cc1` are 8.02 µM and 21.2 µM.
For the compound `Cc1ccc(-n2nc(C)c3c(C)c(CCC(=O)Nc4ccc(CN5CCCC5)cc4)c(C)nc32)cc1`, the IC50 was 13.4 µM and the IC90 worked out at 19.9 µM.
As for `O=C(COc1ccccc1)NNc1nc2ccccc2s1`, the IC50 is 48.4 µM and the IC90 was greater than 100 µM.
On to `COc1cccc2c1C(CO)N1C(C#N)C3CC(C(=O)O)C(C1C2)N3C` (centres undefined), for which the IC50 was 2.69 µM and the 90% effect concentration (IC90) was 2.98 µM.
Taken in the same sequence, the figures for `Cc1ccn2c(-c3csc(NCc4ccccc4)n3)c(C)nc2c1` were 46.8 µM and 52.8 µM.
Take `Nc1cc(Cl)c2nonc2c1[N+](=O)[O-]`: the IC50 was 5.83 µM and the IC90 was 6.64 µM.
`CCCn1c(=N)c(C(=O)NCc2ccc3c(c2)OCO3)cc2c(=O)n3cccc(C)c3nc21`: the IC50 was 19.8 µM and the 90% effect concentration (IC90) was 29 µM.
On to `COC(=O)CCc1nc2c(C#N)c(-c3ccc(Cl)cc3)ccn2n1`, for which the IC50 was 1.68 µM and the IC90 came out at 3.31 µM.
Turning to `O=C(Nc1nc2c(s1)CCCC2)c1cc(-c2ccc3c(c2)OCO3)nc2ccccc12`, the IC50 was 66 µM and the concentration for an effect of 90% (IC90) was greater than 100 µM.
In the case of `CN(CC(=O)Nc1ccc(F)c(F)c1F)c1cnccn1`, the IC50 was 6.08 µM and the IC90 is 12.8 µM.
With `CSC(=S)NCc1cccnc1`, the IC50 is 11.5 µM and the IC90 was 34.7 µM.
With `Nc1cc([N+](=O)[O-])ccc1Nc1ccc(O)cc1`, the 50% inhibitory concentration (IC50) was 30.4 µM and the IC90 was determined as 34 µM.
For `CN(CC(=O)Nc1ccc(OC(F)(F)F)cc1)C(=O)/C=C/c1cc2c(cc1[N+](=O)[O-])OCO2`, the IC50 was 30.2 µM and the IC90 stood at 37.9 µM.
As for `CC(=O)C1=C(C)NC(SCC(=O)c2ccc(F)cc2)=C(C#N)C1c1ccco1` (centres undefined), the IC50 is 46.1 µM and the IC90 worked out at 51 µM.
With `CCCOc1cccc(C(=O)NC(=S)Nc2ccc(N3CCN(C)CC3)cc2)c1`, the IC90 was greater than 100 µM.
Consider `CC1CCc2c(C(=O)Nc3nccs3)csc2C1` (centres undefined), for which the IC50 is 7.27 µM and the IC90 was determined as 22.8 µM.
Regarding `Nc1ccccc1C#CC(=O)c1ccccc1`, the half-inhibitory concentration (IC50) was 1.11 µM and the IC90 is 43.1 µM.
The corresponding values for `COc1ccc2nc(N=NC3=C(O)CC(C)(C)CC3=O)sc2c1` are 12.4 µM and 13.7 µM.
Consider `CC1(C)Cc2c(cnn2-c2ccccc2)-c2c1c1ccccc1n2CC(O)CCl` (centres undefined), for which the IC50 is 88.2 µM and the IC90 is greater than 100 µM.
Regarding `CCCc1cc2c(cc1NC(=O)c1ccccc1Cl)OCO2`, the IC50 was 1.98 µM and the IC90 is greater than 100 µM.
The corresponding values for `Cc1ccc(NCCC(=O)c2ccc(Br)cc2)cc1` are 10.6 µM and 21.5 µM.
`COc1ccc(C2c3[nH]c4ccccc4c3CCN2C(=O)c2cc3ncccn3n2)c(F)c1` (centres undefined) showed a concentration for an effect of 90% (IC90) greater than 100 µM.
As to `COc1ccccc1C(=O)NNC(=O)C(=O)NCc1ccccc1`, the half-maximal inhibitory concentration (IC50) was 10.6 µM and the IC90 was 37.9 µM.
For the compound `CCc1ccc(NC(=O)CSc2nc3n[nH]c(C)c3c(=N)n2-c2cccc(OC)c2)cc1`, the IC50 was 13.2 µM and the IC90 is 37.1 µM.
Consider `O=C1C2(Cl)C3(Cl)C4(Cl)C(Cl)(Cl)C5(Cl)C3(Cl)C1(Cl)C5(Cl)C24Cl` (centres undefined), for which the IC50 is 46.7 µM and the IC90 was determined as 53 µM.
As for `CN(Cc1ccco1)c1ncnc2ccc(-c3ccc4c(ccn4C)c3)cc12`, the IC50 is 16.9 µM and the IC90 is 44.9 µM.
On to `Cc1cc(-c2nnc3n2CCCCC3)c(C)n1-c1ccccc1`, for which the IC50 is 45.7 µM and the IC90 was determined as 51.4 µM.
`CCOC(=O)c1cnc(SC2CCc3ccccc3C2=O)nc1N` (centres undefined): the IC50 was 70.8 µM and the IC90 is 88.7 µM.
The corresponding values for `CCOc1cc(C=O)cc(N=Nc2cccc([N+](=O)[O-])c2)c1O` are 3.98 µM and 11.6 µM.
Taken in the same sequence, the figures for `COC(=O)N/N=C/c1c[n+]([O-])c2ccccc2[n+]1[O-]` were 13.2 µM and 31.7 µM.
In the case of `Fc1ccc2[nH]c3c(NCc4ccccc4)ncnc3c2c1`, the IC50 was 23.5 µM and the IC90 was 26.7 µM.
Regarding `N#C/C(=N/Nc1ccc(OC(F)(F)F)cc1)C(N)=S`, the IC50 was 2.14 µM and the IC90 was determined as 3.43 µM.
The compound `CCCCCCSc1nsc(NC(=O)CC(C)C)n1` yielded an IC90 greater than 100 µM.
Take `CC1=NN(c2ccccc2)C(=O)/C1=C\c1c(C)[nH]n(-c2ccccc2)c1=O`: the IC50 was 18.2 µM and the IC90 was determined as 46 µM.
Turning to `S=c1nc2ccccc2c2nc(-c3ccccc3)[nH]n12`, the IC50 is 10.4 µM and the IC90 worked out at 14.6 µM.
The corresponding values for `CN1C(=O)/C(=C/c2ccccc2Cl)Sc2ccc(C(=O)NCc3cccnc3)cc21` are 23.2 µM and 68.9 µM.
